Reference: patent US9955688B2, “Biocidal aldehyde composition” (priority 2015, dated 2018)

Key:
[1] = Pendant drop surface tension measurement (Tate's equation); type: physicochemical; conditions: pendant drop method, ten drops
Description: BAK's ability to repel biofilm formation as well as penetrate is based upon the physico/chemical and steric changes provoked by hydrophobic changes and electrostatic repulsion. This is due to the positively charged nitrogen that reacts with the acidic phospholipids in the cell membrane. This is the area of penetration bringing along the Glut (cidal component) increasing surface pressure which decreases the adhesive potential by affecting the osmoregularity of bacterial adhesins. […] The BAK molecules at the proper concentration are saturated or at the critical micelle concentration (CMC). When the BAK is above the CMC and the surface tension is constant the best wetting properties are achieved. The stated BAK concentration is important since low doses can actually stimulate metabolic reactions as well as cause resistance. Again the proper importance of “concentration ratios” develops the full synergistic effect. In an example the pendant drop method was used to determine surface tension activity of BAK. Ten drops were measured with a precision balance to calculate surface energy. Tate's equation was used for calculation. It was concluded that the surface tension was reduced by approximately 53%. This illustrates that the addition of the BAK to the formulation permits a better spreading of the solution.

[2] = tested on: E. Coli, P. aeruginosa, salmonella typhii, and kiebsiella; test: MIC of disinfectants by agar dilution; type: cell-based; conditions: individually determined
Procedure: In addition to the foregoing, E. Coli, P. aeruginosa, salmonella typhii, and kiebsiella were tested using selective media and biochemical means. Disk diffusion methods were used testing disinfectant resistance by measuring zones of inhibition after eighteen hours of incubation. MICs of disinfectants were determined by agar dilution. […] The preferred determined exposure is actually 4× of Glut to BAK as determined by log reduction effectiveness. This was supported by running an MIC (inhibitory) versus a MBC (bactericidal) test. Using the McFarland standard on E. coli, with the combination Glut/BAK, the result was that the bactericidal amount was 2× the inhibitory amount in ppm. This was done via serial dilutions on media Nutrient Broth.

biofilm = conditions: Flow Cytometry, MetaMorph image analysis; cited from earlier work
[3] = tested on: biofilm communities of E. faecalis; test: Biofilm formation / LIVE/DEAD staining assay on E. faecalis biofilm communities; type: cell-based; conditions: components tested separately
Description: In experiments, biofilm communities of E. faecalis were created following the techniques of Bergenholtz and Chavez, J. Endo. Coating (2010), using the present formulation. […] This was confirmed by a staining LIVE/DEAD assay. […] Clearly, Glutaraldehyde alone is not as effective as BAK, nor vice versa. Together in “proper ratio” the formula is outstanding at reducing biofilm as well as killing the necessary bacteria. This synergy was confirmed by the fractional inhibitory concentration index (FICI). The FICI for a synergistic mixture, using checkerboard, gave the combination of Glut/BAK a 0.35 FICI which is inhibitory. [Greene et al., App Env Micro Vol 72: 5254-5259 (2006)]. Mixtures according to this test are synergistic when the lowest FICI is below 0.8 therefore giving credence to the present concept. Synergy of Glut/BAK is known but has not been fully tested since the tested material has been Glut/Quats (dual chains) and not BAK. […] The present determination of 4:1 (Glut:BAK), FICI independently determined, corrects this missing component to make an effective formulation. Strong synergy has been shown between Glut/BAK (FICI 0.35). The biofilm reduction/penetration ability of BAK combined with the broad spectrum biocidal activities of Glut enable and achieve, at lower concentrations, due to synergy, the destruction of the SRBs in oil/gas as well the pertinent bacteria in health care.
This was confirmed by the staining LIVE/DEAD assay. […] Glutaraldehyde alone is not as effective as BAK. Together in proper ratio the formula is outstanding at reducing biofilm as well as killing the necessary bacteria, and provides an excellent synergistic complimentary approach to eliminating the bacterial/biofilm problem.

[4] = Check of Glutaraldehyde content when combined with BAK at the CMC; type: physicochemical
Description: The multi-level mechanism of action is as follows. The Glutaraldehyde produces an inherent bacteriocidal effect. BAK lowers surface tension and thus aids in the spread of the Glut on the biofilm covered surface and serves as a binding agent between the Glut and the application surface. The BAK spreads the Glutaraldehyde on the cell surface and increases depth of penetration. Thus, the BAK and Glutaraldehyde are mutually synergistic in attacking and achieving the desired kill effect. Because BAK is a quaternary ammonium salt one would suppose that it would react adversely with the Glutaraldehyde and cause aldehyde consumption. For this reason it became mandatory to check the Glutaraldehyde content and determine if there was a decrease at the CMC. […] This is likely correct due to the small BAK concentration necessary to reach the CMC. […] As a matter of fact it acted synergistically to enhance cidal effects due to its surfactant action.

In the case of benzalkonium chloride [BAK], the surface tension reduction [1] is listed as “approximately 53%”, the MIC [2] is listed as 0.13% and the penetration of biofilm (biofilm) is listed as “peripheral penetration followed by inward migration”. The bio-volume reduction [3] was “over 70 fold” and the “kill (LIVE/DEAD staining)” value [3] was “less so”.

In the case of `O=CCCCC=O` [Glutaraldehyde], the MIC [2] is given as 0.3%, the “reduction in Glutaraldehyde content when combined with BAK” value [4] is given as “did not show any reduction” and the penetration of biofilm (biofilm) is given as “little or no penetration of biofilm”. The “kill (LIVE/DEAD staining)” value [3] was 45%.
